Results on eight compounds are retold here after ChEMBL document CHEMBL1201862, “PubChem BioAssay data set” (2004).

As usually defined, the EC50 is the concentration at which the effect is half-maximal. For orientation: AC50 means the concentration at which the activity in the assay is half-maximal. What is called IC50 is the concentration that gives 50% inhibition.

Data set [1] can be described thus: cytotoxicity toward NIH3T3 fibroblasts, dose response, counter-screen, cell-based, ATP luminescence, mouse fibroblasts (AID 2010).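 Further: cells exposed to compound for about 90 hours before reading.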 The format is functional. For orientation: A counterscreen serves to expose hits that act by an unwanted route or on another target.
Data set [2] in a line: NIH-3T3 fibroblast cytotoxicity, dose response, cytotoxicity control, cell-based, fluorescence, Alamar Blue, secondary assay (AID 2327).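 Further: NIH-3T3 mouse fibroblasts cultured with fluconazole at 8 µg/mL.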 In kind it is functional. In general terms: Alamar Blue is a resazurin reagent that responds to reducing activity.
The nature of data set [3]: C. albicans growth with fluconazole, confirmation, fluorescence, retest (AID 2467). The format is functional, cell-based.
Data set [4] is described as follows: inhibitors of intracellular T. cruzi replication, confirmation, NIH3T3 host cells, beta-gal luminescence (AID 2044).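 Further: intracellular parasites grown in NIH/3T3 mouse fibroblasts as host cells; luminescent beta-galactosidase reporter signal from transgenic T. cruzi replicating inside host cells; inhibitors lower the luminescence signal.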 The format is functional, cell-based.
The test system of data set [5] is A-375. As to the kind of experiment: A375 melanoma cell viability reduction, dose response, counter-screen for MITF modulator project, cherry-pick samples, set 2 (AID 540335). The format is functional, cell-based. Conditions: Homo sapiens.
In data set [6] the target is T1, Microphthalmia-associated transcription factor (Homo sapiens, UniProt O75030).
T1 sequence (O75030 whole entry): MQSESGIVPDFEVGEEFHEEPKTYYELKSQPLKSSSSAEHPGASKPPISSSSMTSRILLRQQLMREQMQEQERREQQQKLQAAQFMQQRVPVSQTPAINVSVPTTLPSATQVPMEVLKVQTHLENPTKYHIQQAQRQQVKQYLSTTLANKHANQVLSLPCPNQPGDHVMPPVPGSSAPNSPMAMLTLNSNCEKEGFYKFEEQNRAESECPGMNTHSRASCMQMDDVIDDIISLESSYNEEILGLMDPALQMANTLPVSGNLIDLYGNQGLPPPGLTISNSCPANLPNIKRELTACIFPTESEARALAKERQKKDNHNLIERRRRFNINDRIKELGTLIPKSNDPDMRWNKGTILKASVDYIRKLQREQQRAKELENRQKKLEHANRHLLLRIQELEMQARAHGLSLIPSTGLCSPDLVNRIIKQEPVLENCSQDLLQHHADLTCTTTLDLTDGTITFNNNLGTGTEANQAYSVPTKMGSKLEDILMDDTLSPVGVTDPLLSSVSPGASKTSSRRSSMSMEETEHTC
Briefly: TRPM1 promoter luciferase signal decrease, dose response, MITF inhibitor project, cell-based, SK-MEL-5, cherry-picked, set 3 (AID 493073).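 Further: SK-MEL-5 melanoma cells with luciferase driven by the MITF target TRPM1 promoter.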 The format is functional.

The target of data set [7] is T2, Replicative DNA helicase DnaB (Mycobacterium tuberculosis, UniProt P9WMR3).
T2 sequence (P9WMR3 whole entry): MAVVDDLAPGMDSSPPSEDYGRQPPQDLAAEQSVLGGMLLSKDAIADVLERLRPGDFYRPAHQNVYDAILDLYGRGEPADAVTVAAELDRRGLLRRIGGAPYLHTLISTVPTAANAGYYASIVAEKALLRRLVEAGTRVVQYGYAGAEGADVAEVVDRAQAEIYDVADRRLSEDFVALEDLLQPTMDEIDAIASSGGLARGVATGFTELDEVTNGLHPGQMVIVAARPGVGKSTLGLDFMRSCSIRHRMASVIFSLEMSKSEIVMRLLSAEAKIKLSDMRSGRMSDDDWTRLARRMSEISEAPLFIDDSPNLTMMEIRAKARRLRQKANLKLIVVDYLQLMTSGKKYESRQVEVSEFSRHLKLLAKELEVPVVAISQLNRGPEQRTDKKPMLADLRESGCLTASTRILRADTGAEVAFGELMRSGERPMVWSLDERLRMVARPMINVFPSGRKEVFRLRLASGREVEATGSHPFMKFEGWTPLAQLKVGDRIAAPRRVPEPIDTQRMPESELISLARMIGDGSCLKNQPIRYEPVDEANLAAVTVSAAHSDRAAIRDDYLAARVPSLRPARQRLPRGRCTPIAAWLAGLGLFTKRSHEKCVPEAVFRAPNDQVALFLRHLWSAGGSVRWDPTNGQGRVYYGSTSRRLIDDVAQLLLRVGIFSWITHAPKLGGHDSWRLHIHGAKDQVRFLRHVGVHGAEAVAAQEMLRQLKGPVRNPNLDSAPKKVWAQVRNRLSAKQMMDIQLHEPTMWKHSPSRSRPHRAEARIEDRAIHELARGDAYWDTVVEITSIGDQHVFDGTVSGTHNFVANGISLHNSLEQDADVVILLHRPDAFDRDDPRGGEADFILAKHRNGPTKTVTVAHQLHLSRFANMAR
As to the kind of experiment: DnaB intein splicing inhibitors, dose response, biochemical, cell-free fluorescence (AID 449749). The format is functional.

Data set [8] has as its target T3, Protein RecA (Mycobacterium tuberculosis, UniProt P9WHJ3).
T3 sequence (P9WHJ3 whole entry): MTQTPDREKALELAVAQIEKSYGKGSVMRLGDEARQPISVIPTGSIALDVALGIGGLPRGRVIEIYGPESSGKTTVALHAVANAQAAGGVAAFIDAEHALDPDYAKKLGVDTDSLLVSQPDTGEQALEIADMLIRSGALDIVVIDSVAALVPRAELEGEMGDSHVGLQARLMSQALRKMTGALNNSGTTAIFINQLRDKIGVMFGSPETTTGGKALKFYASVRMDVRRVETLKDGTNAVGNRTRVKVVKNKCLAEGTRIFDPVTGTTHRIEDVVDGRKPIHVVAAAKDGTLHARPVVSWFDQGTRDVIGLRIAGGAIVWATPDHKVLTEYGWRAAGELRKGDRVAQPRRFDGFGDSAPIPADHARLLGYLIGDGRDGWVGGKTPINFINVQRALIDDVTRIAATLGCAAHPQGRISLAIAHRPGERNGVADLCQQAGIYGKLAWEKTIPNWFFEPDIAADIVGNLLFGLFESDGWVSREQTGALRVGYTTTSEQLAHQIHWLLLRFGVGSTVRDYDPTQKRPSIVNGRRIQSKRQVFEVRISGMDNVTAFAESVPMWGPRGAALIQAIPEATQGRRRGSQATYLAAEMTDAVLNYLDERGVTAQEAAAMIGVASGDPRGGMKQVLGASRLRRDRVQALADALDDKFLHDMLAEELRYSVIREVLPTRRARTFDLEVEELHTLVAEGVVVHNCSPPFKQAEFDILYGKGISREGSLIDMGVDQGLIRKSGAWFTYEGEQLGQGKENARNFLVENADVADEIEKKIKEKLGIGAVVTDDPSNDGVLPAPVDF
Briefly: Fluorescence Cell-Free Homogeneous Dose Retest to Identify Inhibitors of RecA-Intein Splicing Activity. [Related pubchem assays (depositor defined):AID2097, AID2223, AID489010, AID492950]. In kind it is functional.

Data set [9] deals with HEK293. As to the kind of experiment: cells. To be noted: Homo sapiens.
The subject of data set [10] is HEK293. Briefly: cells. Conditions: Homo sapiens. The source holds these as a separate data set.
Data set [11] is described as follows: off-target signal loss in HeLa-CEM21 co-culture – HeLa F-luc CTL cells, cherry-picked, counter-screen for HIV-1 Env fusion inhibitor project, dose response (AID 652040).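 Further: potency for signal decrease marking cytotoxic or nonspecific inhibition.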 In kind it is functional, cell-based.
A short description of data set [12]: inhibitors of HIV Env-driven cell fusion, dose response, cherry-pick (AID 652057). The format is functional, cell-based.
The nature of data set [13]: ZM109 Env clade C HIV-1 fusion inhibitors, dose response, HeLa effector, CEM target cells, luciferase, cherry-pick (AID 652058). In kind it is functional, cell-based.
The nature of data set [14]: inhibitors of clade B AD8 Env fusion, dose response, cell-based, cherry-pick (AID 652062).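 Further: luciferase signal from cell-cell fusion driven by HIV-1 clade B AD8 Env; potency is for inhibitors of fusion seen as a drop in luminescence.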 The format is functional.
For data set [15], the target named is Voltage-gated inwardly rectifying potassium channel KCNH2 (Homo sapiens, UniProt Q12809). Conditions: Potency.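 Further: confirmatory quantitative high-throughput screen measuring inhibition of hERG channel activity.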
Chain of Voltage-gated inwardly rectifying potassium channel KCNH2 (Q12809 whole entry): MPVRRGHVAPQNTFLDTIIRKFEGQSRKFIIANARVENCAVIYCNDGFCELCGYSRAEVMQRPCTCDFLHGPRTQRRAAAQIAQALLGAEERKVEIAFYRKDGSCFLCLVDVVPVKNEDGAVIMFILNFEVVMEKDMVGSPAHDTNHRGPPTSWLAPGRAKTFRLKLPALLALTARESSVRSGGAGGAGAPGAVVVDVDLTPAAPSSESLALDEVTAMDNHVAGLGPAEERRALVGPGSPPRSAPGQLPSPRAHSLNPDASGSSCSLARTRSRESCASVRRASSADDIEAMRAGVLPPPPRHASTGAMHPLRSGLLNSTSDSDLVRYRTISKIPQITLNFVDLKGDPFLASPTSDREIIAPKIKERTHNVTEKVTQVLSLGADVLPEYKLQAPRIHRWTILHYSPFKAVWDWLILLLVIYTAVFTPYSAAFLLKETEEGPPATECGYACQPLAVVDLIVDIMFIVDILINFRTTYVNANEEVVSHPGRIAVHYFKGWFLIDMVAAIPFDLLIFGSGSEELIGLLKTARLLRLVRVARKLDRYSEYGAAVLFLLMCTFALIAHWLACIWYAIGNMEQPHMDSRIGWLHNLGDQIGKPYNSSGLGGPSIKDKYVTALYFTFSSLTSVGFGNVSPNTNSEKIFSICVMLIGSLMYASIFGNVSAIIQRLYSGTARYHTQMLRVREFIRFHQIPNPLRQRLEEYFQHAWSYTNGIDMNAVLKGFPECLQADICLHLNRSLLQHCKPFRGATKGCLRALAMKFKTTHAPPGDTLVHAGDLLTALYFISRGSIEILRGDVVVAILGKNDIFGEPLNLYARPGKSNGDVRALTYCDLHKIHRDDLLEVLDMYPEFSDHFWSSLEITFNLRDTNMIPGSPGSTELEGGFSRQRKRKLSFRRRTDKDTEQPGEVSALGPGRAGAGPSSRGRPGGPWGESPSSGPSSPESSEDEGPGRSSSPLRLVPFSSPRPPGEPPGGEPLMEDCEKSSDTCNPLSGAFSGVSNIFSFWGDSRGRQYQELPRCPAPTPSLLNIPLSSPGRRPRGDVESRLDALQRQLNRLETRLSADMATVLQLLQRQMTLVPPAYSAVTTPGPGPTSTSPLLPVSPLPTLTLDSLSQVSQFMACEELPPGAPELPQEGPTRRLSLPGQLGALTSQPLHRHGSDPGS
Data set [16] concerns the target T4, Cytochrome P450 2C9 (Homo sapiens, UniProt P11712).
The target of data set [17] is T5, Cytochrome P450 1A2 (Homo sapiens, UniProt P05177).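 Further: PubChem cytochrome P450 panel assay, CYP1A2 panel member.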
T5 sequence (P05177 whole entry): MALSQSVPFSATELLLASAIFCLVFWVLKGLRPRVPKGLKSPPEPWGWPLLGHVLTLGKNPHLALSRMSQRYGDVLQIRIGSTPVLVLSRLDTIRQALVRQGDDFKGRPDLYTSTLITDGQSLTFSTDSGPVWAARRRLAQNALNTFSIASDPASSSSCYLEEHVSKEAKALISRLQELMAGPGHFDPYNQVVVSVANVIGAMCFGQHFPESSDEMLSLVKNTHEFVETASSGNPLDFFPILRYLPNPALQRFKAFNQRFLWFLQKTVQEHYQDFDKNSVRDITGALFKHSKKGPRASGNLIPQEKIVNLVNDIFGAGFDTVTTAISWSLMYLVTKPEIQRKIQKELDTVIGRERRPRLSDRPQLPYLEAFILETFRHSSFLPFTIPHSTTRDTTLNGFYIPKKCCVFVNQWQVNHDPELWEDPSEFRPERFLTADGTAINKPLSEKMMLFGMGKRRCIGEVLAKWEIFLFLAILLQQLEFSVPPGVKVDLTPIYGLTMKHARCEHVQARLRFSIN

Data set [18] deals with Cytochrome P450 2C19 (Homo sapiens, UniProt P33261). Briefly: Cytochrome panel assay with activity outcomes. Panel member name: p450-cyp2c19 Compounds with AC50 equal or less than 10 uM are considered active. The format is functional. Conditions: read-out: AC50.
Chain of Cytochrome P450 2C19 (P33261 whole entry): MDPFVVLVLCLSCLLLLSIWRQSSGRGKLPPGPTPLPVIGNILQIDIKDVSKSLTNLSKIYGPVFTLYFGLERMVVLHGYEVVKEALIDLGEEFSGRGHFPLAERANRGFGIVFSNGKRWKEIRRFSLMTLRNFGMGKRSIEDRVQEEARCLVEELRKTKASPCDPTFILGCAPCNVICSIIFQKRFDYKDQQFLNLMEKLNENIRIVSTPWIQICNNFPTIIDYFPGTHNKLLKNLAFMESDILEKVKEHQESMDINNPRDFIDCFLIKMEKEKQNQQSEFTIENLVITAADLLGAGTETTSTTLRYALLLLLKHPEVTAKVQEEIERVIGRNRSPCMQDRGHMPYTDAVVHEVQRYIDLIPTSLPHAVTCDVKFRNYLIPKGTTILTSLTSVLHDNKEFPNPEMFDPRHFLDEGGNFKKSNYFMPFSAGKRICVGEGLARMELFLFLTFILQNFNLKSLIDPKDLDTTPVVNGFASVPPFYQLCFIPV
Data set [19] concerns the target Cytochrome P450 2D6 (Homo sapiens, UniProt P10635).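 Further: CYP2D6 member of a cytochrome P450 panel assay.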
In data set [20] the target is Induced myeloid leukemia cell differentiation protein Mcl-1 (Homo sapiens, UniProt Q07820). In kind it is functional.
Chain of Induced myeloid leukemia cell differentiation protein Mcl-1 (Q07820 whole entry): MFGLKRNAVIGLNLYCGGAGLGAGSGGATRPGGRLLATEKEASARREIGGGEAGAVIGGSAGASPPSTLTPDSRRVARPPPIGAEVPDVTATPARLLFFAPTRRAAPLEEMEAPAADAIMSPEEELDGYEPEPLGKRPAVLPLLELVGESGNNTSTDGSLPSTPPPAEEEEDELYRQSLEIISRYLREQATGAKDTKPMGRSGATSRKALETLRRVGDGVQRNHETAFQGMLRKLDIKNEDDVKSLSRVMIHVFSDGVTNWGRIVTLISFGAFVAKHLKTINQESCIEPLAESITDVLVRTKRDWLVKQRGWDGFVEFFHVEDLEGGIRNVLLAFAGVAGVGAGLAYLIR
The target of data set [21] is T6, Aryl hydrocarbon receptor (Homo sapiens, UniProt P35869).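 Further: confirmatory quantitative high-throughput screen measuring activation of the AhR signaling pathway.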
T6 sequence (P35869 whole entry): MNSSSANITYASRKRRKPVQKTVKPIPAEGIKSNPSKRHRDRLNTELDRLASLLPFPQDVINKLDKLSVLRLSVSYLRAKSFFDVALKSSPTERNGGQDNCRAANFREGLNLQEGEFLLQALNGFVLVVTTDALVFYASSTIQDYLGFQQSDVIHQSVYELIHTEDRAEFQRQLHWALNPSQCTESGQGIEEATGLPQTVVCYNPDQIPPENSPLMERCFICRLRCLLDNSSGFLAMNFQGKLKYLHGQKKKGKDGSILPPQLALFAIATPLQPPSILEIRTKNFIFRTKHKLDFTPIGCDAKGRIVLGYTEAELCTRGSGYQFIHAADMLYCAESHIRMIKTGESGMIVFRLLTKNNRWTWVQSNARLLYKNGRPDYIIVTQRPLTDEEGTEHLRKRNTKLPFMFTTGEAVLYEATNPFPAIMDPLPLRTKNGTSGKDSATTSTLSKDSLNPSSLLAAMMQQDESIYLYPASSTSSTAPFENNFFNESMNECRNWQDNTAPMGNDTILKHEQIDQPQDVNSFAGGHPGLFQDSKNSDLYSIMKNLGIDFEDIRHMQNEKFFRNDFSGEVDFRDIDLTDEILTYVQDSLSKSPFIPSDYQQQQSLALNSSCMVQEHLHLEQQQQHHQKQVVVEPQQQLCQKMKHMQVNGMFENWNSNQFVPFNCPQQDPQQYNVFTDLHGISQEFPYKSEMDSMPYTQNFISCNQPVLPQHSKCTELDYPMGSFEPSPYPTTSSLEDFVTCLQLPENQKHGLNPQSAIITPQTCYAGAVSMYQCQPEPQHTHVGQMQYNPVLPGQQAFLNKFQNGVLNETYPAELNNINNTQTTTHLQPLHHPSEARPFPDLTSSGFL
Conditions: Potency.

The target of data set [22] is T4, Cytochrome P450 2C9. This is another data set of the same source.
Data set [23] can be described thus: microbe, parasite or virus in culture. The format is functional. Conditions: Mycobacterium tuberculosis.

The structures appear in SMILES notation. The source made the active and inactive calls. Some results are limits rather than exact numbers.

T4 sequence (P11712 whole entry): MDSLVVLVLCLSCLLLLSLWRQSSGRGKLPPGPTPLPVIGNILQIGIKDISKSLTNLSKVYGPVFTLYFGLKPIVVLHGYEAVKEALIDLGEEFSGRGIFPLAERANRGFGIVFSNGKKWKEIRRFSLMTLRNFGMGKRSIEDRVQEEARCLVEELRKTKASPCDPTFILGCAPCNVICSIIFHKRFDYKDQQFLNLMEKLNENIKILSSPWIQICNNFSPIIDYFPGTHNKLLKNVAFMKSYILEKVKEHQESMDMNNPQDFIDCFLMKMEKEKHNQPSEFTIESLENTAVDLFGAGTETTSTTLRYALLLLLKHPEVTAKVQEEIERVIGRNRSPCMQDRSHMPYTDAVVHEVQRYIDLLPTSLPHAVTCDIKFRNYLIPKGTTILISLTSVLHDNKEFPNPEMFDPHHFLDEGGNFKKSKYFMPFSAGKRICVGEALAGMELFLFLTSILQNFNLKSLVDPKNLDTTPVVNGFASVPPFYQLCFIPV
Chain of Cytochrome P450 2D6 (P10635 whole entry): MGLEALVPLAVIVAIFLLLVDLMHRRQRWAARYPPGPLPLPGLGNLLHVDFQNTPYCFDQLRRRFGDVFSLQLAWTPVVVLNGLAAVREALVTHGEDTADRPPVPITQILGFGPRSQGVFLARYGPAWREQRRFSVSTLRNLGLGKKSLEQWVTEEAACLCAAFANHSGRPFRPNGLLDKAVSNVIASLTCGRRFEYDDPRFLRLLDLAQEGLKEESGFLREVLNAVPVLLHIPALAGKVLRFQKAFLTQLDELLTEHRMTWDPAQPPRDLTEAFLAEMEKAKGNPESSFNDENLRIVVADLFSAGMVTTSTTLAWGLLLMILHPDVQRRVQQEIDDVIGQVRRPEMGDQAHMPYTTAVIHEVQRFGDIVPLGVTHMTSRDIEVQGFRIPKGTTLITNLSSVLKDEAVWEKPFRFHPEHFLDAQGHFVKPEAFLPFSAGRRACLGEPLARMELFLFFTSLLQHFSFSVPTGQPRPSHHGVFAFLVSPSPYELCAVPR

For the compound `O=C(CCl)N1c2ccccc2CCc2ccccc21`, the EC50 in data set [1] was 4.26 µM (active); in data set [2], 5.37 µM (inconclusive); in data set [3], 2.36 µM (active); in [4] it was 2.09 µM (active); in data set [8], 0.45 µM (active). Also, the AC50 is 42.7 µM (active) in data set [5], 5.54 µM (active) in data set [6] and 7.5 µM (active) in data set [7].

Consider `Cc1ccc(S(=O)(=O)Cn2nnnc2C(C(C)C)N2CCc3ccccc3C2)cc1` (stereo not given), for which the EC50 in data set [9] and in data set [10] was > 59.6 µM (inactive) throughout.

As for `C[C@@]12C(=O)N(CCc3c[nH]c4ccccc34)CC(=O)N1[C@H]1c3ccccc3OC[C@@H]1[C@@H]2c1ccccc1`, the AC50 in data set [11] is 3.73 µM (active); in data set [12], 2.67 µM (active); in data set [13], 2.7 µM (active); in data set [14] it was 4.46 µM (active). In addition, the EC50 in data set [9] and in data set [10] was > 59.7 µM (inactive) each time.

Take `COc1ccc(CC(C)NCC(O)c2ccc(O)c(NC=O)c2)cc1` (stereo not given): the EC50 in data set [9] and in data set [10] was > 59.6 µM (inactive) throughout.

Regarding `CCCCCCCCCCCCCC(=O)O[C@@H]1[C@@H](C)[C@@]2(O)[C@@H](C=C(CO)C[C@@]3(O)C(=O)C(C)=C[C@@H]23)C2C(C)(C)[C@@]21OC(C)=O` (stereo not given in full), the AC50 in data set [15] was 0.112 µM (inconclusive).

`CCCCCCN(CCCCCC)C(=O)Cc1c(-c2ccc(F)cc2)[nH]c2ccccc12`: the concentration at half-maximal activity (AC50) was 5.01 µM (inconclusive) in data set [16], 15.8 µM (inconclusive) in data set [17] and 8.91 µM (inconclusive) in data set [15].

Regarding `COc1ccc2[nH]c([S+]([O-])Cc3ncc(C)c(OC)c3C)nc2c1` (stereo not given) [OMEPRAZOLE], the half-maximal activity concentration (AC50) in data set [18] was 2.51 µM (active); in data set [19], “inactive”; in data set [21], 20 µM (inconclusive); in data set [17], 31.6 µM (inconclusive); in data set [22], “inactive”. Besides, the IC50 in data set [20] is 3.14 µM (active).

With `CCCCCC(O)c1cccc(OCc2ccc3ccccc3n2)c1` (stereo not given) [REV-5901], the CC50 in data set [23] was > 40 µM (active). For the same compound, the AC50 in data set [15] is 35.5 µM (inconclusive).
